In brackets after ≈: the same amount, converted by molar mass. Each block holds one molecule with its values, some of them ahead of it.
Assays:
[1] = system: hamster ear sebaceous glands; test: Hamster ear sebaceous gland model, repeat topical application; format: in vivo, Syrian golden hamster
Experimental: The Syrian golden hamster ([…]) ear sebaceous gland model was used to evaluate the effect of repeat application of TOFA and TOFA analogs. Male animals were employed since they have larger sebaceous glands than females a consequence of their higher endogenous levels of androgenic hormones. To define compound effects, cross-sections prepared from hamster ears were treated with the neutral lipid-specific stain Oil Red O. Staining results were compared to the untreated ear of the same animal in order to account for any changes in the overall physiological state of the animal as well as potential systemic effects stemming from local drug application.
Typically, compounds were prepared and applied in 40% dimethyl acetamide (DMA)/30% acetone/30% ethanol (vehicle). Animals were typically 10-12 weeks of age and 100-150 g bodyweight at the start of the experiment. Treatment groups consisted of 5-8 animals. Non-anesthetized hamsters were administered the test material onto the ventral surface of the right ear using a pipette at a volume of 20 μl per ear. Materials were gently massaged into the treatment site with a gloved finger for approximately 15 sec. Hamsters received treatment once daily for 15-28 consecutive days. Application of the test articles occurred within the same 4-hour period on each application day. The left ear remained untreated and served as an internal control site. Animals were evaluated daily for general appearance and potential clinical signs related to treatment such as edema, erythema, discoloration or other changes to the ears. Hamsters were also assessed for general health by coat appearance, behavior, and activity level.
Animals were euthanized by CO2 asphyxiation approximately 16-20 h following the final (21st) application. Tissue samples for sebaceous gland analysis were subsequently taken by histology personnel. The right (treated) and left (untreated) ears were carefully removed from euthanized hamsters. A 3.5 mm punch biopsy of the treated ear was marked with a marking dye on the ventral surface. A punch biopsy of the untreated ear was marked with a separate tissue-marking dye on the ventral surface. Tissues were embedded in a labeled mold filled with “Neg 50” cryo-embedding medium and frozen on liquid nitrogen. These blocks were sequentially wrapped in Parafilm® then aluminum foil for storage at −70° C. until required.
To assess sebaceous gland status, ear cross-sections were initially cut at a thickness of approximately 8 μm onto glass slides and immediately fixed with 10% buffered formalin. Sections were stained with the lipid-specific Oil Red O dye by standard methods, covered with Faramount (Dakocytomation, Ca) acrylic mounting medium, cover slipped and then allowed to set. […] Tissue sections stained with Oil Red O were viewed with a Spot RT digital camera mounted on an Olympus BX60 microscope. An image of the section was taken using the 4× microscope objective. The image was saved using the unique animal identification number, slide number, and magnification. Relative sebaceous gland areas (red staining areas) were determined using Image-Pro software (Media Cybernetics Inc., Silver Spring, Md.). The area of image analysis was the dermis which included the region from the epidermal-dermal junction to the midline of the tissue demarcated by the central cartilage line. Data was expressed as percentage of the area of the tissue cross section which was red in color, representative of lipid-containing structures, in comparison to the total area analyzed.
In these experiments, the compound of the invention, TOFA and vehicle were applied onto male hamster ears. At the end of treatment, the hamsters were sacrificed and the area of sebaceous glands in the treated area was determined. […]

[2] = Determination of solubility in synthetic sebum; format: physicochemical; conditions: oil or lipid, thermodynamic from solid, 32° C., agitated overnight, HPLC, read-out: Solubility in Liquid Synthetic Sebum
Experimental: Compounds described herein can be tested to evaluate their solubility in lipids. To determine the solubility, a synthetic sebum mixture was used. More specifically, approximately 5 mg of a compound was added into 1.5 ml eppendorf tubes, which was then combined with 0.1 ml of synthetic sebum and then briefly vortexed. Mixtures were placed samples in a shaker pre-heated to 32° C. and then agitated overnight. Prior to sampling for HPLC analysis, tubes were placed in an eppendorf centrifuge and spun at 13000 rpm for 5 min to pellet the insoluble drug portion. Following centrifugation, 20 ul of the top portion of the soluble fraction was sampled, in triplicate, into a 2 ml HPLC vial for analysis and the mass recorded. One ml of THF was then added to each vial to solubilize sebum. To determine their concentrations, HPLC analysis of all compounds was carried out under the same running conditions.

SZ95 sebocytes = test: Inhibition of lipid synthesis in SZ95 sebocytes; format: cell-based, human; conditions: 96-well microtiter plate format
Experimental: The immortalized human sebocyte cell line, SZ95, was maintained in culture as described in Zouboulis, C. C. et al., J. Invest. Dermatol. (1999), Vol. 113, pp. 1011-1020. Lipid synthesis was stimulated by treating SZ95 cells with arachidonic acid (AA). For measurement of lipid production and lipid inhibition studies, test compounds were dissolved in dimethylsulfoxide (DMSO) and added at the desired concentration in 96-well microtiter plates. The cells were then cultured for up to 72 hours before the plates were washed 3 times with PBS and a final volume of 200 μL PBS/well was added. […] Plate fluorescence was then quantified using a fluorometric plate reader (excitation wavelength: 490 nm; emission wavelength: 590 nm). Inhibition of lipid levels by the test compound was expressed as the % reduction of the fluorescence of AA-stimulated cells in the presence of the test compound relative to the values obtained for the unstimulated control cells. Cell viability was measured by utilizing the conversion of a tetrazolium reagent (MTS) to a colored-formazan product by live cells. […] The color development of the wells was measured using a plate reader at an absorbance of […]. Effect on cell viability by the test compound was expressed as the % reduction of the absorbance for AA-stimulated cells in the presence of the test compound relative to the values obtained for the untreated control cells.

[3] = system: moderate to severe acne patients; conditions: oral, at 12 weeks; cited from earlier work
[4] = 21 consecutive days, 75 mM, ear cross-sections (FIG. 3)

Structure (SMILES): CCCCC/C=C\C/C=C\C/C=C\C/C=C\CCCC(=O)O [arachidonic acid]
increase of SZ95 sebocyte lipid levels (SZ95 sebocytes): approximately 5 fold

Structure (SMILES): CC(c1cc2ccccc2s1)N(O)C(N)=O (centres unmarked) [Zileuton]
reduction in inflammatory lesions [3]: 71%
reduction of sebum lipids [3]: 65%

Structure (SMILES): CCCCCCCCCCCCCCOc1ccc(C(=O)O)o1 [TOFA, 5-(tetradecyloxy)-2-furancarboxylic acid]
inflammatory cell presence in skin sections [1, 4]: No appreciable inflammatory cell presence
tolerability of repeat topical applications ([1]; hamster, in vivo): well-tolerated
solubility [2]: 1.5 ± 0.4 mg/mL (≈ 4.62 mM)

Further lines, with some results ahead:

solubility [2]: 28.9 ± 9.2 mg/mL (≈ 71.1 mM)
Structure (SMILES): CCCCCCCCCCCCCCOc1ccc(C(=O)OCC(F)(F)F)o1 [Compound A, 2,2,2-trifluoroethyl 5-(tetradecyloxy)furan-2-carboxylate]
inflammatory cell presence in skin sections [1, 4]: No appreciable inflammatory cell presence
sebaceous gland area, histological appearance (Oil Red O) [1, 4]: Reduced sebaceous gland area
average gland area lower in comparison to vehicle-treated animals ([1]; after 21 days of application in 40% DMA/30% acetone/30% ethanol (FIG. 2)): 63.5%
sebaceous gland counts versus control values ([1]; samples prepared two weeks after completion of 21-day treatment): significantly lower
sebaceous gland area compared to TOFA and vehicle (FIG. 1) ([1]; topical daily at 75 mM for 21 days in 40% DMA/30% acetone/30% ethanol): ability to reduce sebaceous gland area

solubility [2]: 43 ± 0.5 mg/mL (≈ 117 mM)
Structure (SMILES): CCCCCCCCCCCCCCOc1ccc(C(=O)OC(C)C)o1 [Compound B, isopropyl 5-(tetradecyloxy)furan-2-carboxylate]

solubility [2]: 13.6 ± 1.9 mg/mL (≈ 31.2 mM)
Structure (SMILES): CCCCCCCCCCCCCCOc1ccc(C(=O)OCc2oc(=O)oc2C)o1 [Compound C, (5-methyl-2-oxo-1,3-dioxol-4-yl)methyl 5-(tetradecyloxy)furan-2-carboxylate]
